This is an account of results in patent publication US20250115591A1, “NOVEL SULFONAMIDE CARBOXAMIDE COMPOUNDS” (INFLAZOME LIMITED, priority 2017, published 2025).

pIC50: −log10 of the molar value. Structures can show the parent of a compound that is named as a salt. A value given as a limit tells only on which side of the number the result lay.

As usually defined, the pIC50 is the IC50 on a negative log10 scale, so that one unit is a factor of ten. By AUC is commonly meant the area under the concentration-time curve, a measure of exposure.

Sequence of NLRP3 (Q96P20 whole entry): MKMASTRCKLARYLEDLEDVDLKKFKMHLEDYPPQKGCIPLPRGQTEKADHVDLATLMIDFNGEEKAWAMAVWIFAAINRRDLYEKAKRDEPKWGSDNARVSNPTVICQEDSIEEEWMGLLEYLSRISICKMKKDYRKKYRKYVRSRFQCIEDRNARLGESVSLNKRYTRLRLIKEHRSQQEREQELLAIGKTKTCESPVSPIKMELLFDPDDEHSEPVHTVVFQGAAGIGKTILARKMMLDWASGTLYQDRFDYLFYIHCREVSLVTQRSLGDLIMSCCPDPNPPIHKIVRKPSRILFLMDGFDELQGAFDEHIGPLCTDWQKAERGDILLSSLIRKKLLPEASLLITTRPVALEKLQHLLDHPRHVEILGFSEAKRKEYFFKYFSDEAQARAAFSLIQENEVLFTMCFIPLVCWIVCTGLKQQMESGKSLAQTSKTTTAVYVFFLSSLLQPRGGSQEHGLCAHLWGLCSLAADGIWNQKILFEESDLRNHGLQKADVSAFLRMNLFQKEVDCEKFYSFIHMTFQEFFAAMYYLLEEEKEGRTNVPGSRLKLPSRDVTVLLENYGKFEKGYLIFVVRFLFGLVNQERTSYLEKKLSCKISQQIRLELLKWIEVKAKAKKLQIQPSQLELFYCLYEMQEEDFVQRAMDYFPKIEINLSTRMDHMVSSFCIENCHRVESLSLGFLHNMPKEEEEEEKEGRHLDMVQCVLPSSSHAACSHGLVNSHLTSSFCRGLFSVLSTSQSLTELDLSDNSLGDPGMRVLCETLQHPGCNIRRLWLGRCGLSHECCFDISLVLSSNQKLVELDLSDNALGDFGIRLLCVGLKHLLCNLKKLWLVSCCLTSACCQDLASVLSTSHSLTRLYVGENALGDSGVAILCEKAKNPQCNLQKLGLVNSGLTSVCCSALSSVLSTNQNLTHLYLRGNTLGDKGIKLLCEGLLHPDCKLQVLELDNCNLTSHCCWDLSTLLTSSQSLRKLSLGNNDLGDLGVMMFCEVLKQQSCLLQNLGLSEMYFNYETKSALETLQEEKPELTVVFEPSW

In one series the target is NLRP3 (Homo sapiens (Human), UniProt Q96P20). As to the kind of experiment: THP-1 cells pyroptosis assay (LPS + nigericin, resazurin read-out). In kind it is cell-based. Conditions: 1 μg/ml LPS, 5 μM nigericin. As to the method:
THP-1 cells (ATCC #TIB-202) were grown in RPMI containing L-glutamine (Gibco 15 #11835) supplemented with 1 mM sodium pyruvate (Sigma #S8636) and penicillin (100 units/ml)/streptomycin (0.1 mg/ml) (Sigma #P4333) in 10% Fetal Bovine Serum (FBS) (Sigma #F0804). The cells were routinely passaged and grown to confluency (˜10^6 cells/ml). On the day of the experiment, THP-1 cells were harvested and resuspended into RPMI medium (without FBS). The cells were then counted and viability (>90%) checked by Trypan blue (Sigma #T8154). Appropriate dilutions were made to give a concentration of 625,000 cells/ml. To this diluted cell solution was added LPS (Sigma #[4524) to give a 1 μg/ml Final Assay Concentration (FAC). 40μ of the final preparation was aliquoted into each well of a 96-well plate. The plate thus prepared was used for compound screening.
The following method step-by-step assay was followed for compound screening. • 1. Seed THP-1 cells (25,000 cells/well) containing 1.0 μg/ml LPS in 40μ of RPMI medium (without FBS) in 96-well, black walled, clear bottom cell culture plates coated with poly-D-lysine (VWR #734-0317) • 2. Add 5 μl compound (8 points half-log dilution, with […]) or vehicle (DMSO 0.1% FAC) to the appropriate wells • 3. Incubate for 3 hrs at 37° C. and 5% CO2 • 4. Add 5 μl nigericin (Sigma #N7143) (FAC 5 μM) to all wells • 5. Incubate for 1 hr at 37° C. and 5% CO2 • 6. At the end of the incubation period, spin plates at 300×g for 3 mins and remove supernatant • 7. Then add 50 μl of resazurin (Sigma #R7017) (FAC 100 μM resazurin in RPMI medium without FBS) and incubate plates for a further 1-2 hrs at 37° C. and 5% CO2 • 8. Plates were read in an Envision reader at Ex 560 nm and Em 590 nm • 9. IC50 data is fitted to a non-linear regression equation (log inhibitor vs response-variable slope 4-parameters)
(In general: The colour change of resazurin is a common sign of viable cells or microbes.)
For the molecule `CC1(CCN2CC(S(=O)(=O)NC(=O)Nc3c4c(cc5c3CCC5)CCC4)C2)N=N1` [Example 139, N-((1,2,3,5,6,7-Hexahydro-s-indacen-4-yl)carbamoyl)-1-(2-(3-methyl-3H-diazirin-3-yl)ethyl)azetidine-3-sulfonamide, potassium salt], the pIC50 was 5.00 to 6.00. In the case of `Cn1cc(CN2CC(S(=O)(=O)NC(=O)Nc3c4c(cc5c3CCC5)CCC4)C2)ccc1=O` [Example 140, N-((1,2,3,5,6,7-Hexahydro-s-indacen-4-yl)carbamoyl)-1-((1-methyl-6-oxo-1,6-dihydropyridin-3-yl)methyl)azetidine-3-sulfonamide, potassium salt], the pIC50 was above 6.00. Regarding `O=C(Nc1c2c(cc3c1CCC3)CCC2)NS(=O)(=O)C1CN(CCC2CCOC2)C1` (centres unmarked) [Example 142, N-((1,2,3,5,6,7-Hexahydro-s-indacen-4-yl)carbamoyl)-1-(2-(tetrahydrofuran-3-yl)ethyl)azetidine-3-sulfonamide, potassium salt], the pIC50 was above 6.00. As to `CCN1CC(S(=O)(=O)NC(=O)Nc2c3c(cc4c2CCC4)CCC3)CC1=O` (centres unmarked) [Example 147, 1-Ethyl-N-((1,2,3,5,6,7-hexahydro-s-indacen-4-yl)carbamoyl)-5-oxopyrrolidine-3-sulfonamide, potassium salt], the pIC50 is 5.00 to 6.00. Still for that read-out and setting: the result for `COC1CN(C)CC1S(=O)(=O)NC(=O)Nc1c2c(cc3c1CCC3)CCC2` (centres unmarked) [Example 149, N-((1,2,3,5,6,7-Hexahydro-s-indacen-4-yl)carbamoyl)-4-methoxy-1-methylpyrrolidine-3-sulfonamide, potassium salt] reads 5.00 to 6.00; that for `CCN1CC(OC)C(S(=O)(=O)NC(=O)Nc2c3c(cc4c2CCC4)CCC3)C1` (centres unmarked) [Example 150, 1-Ethyl-N-((1,2,3,5,6,7-hexahydro-s-indacen-4-yl)carbamoyl)-4-methoxypyrrolidine-3-sulfonamide, potassium salt], above 6.00; that for `CC(C)(C)[Si](C)(C)OCCN1CC(S(=O)(=O)NC(=O)Nc2c3c(cc4c2CCC4)CCC3)C1` [Example 151, 1-(2-((tert-Butyldimethylsilyl)oxy)ethyl)-N-((1,2,3,5,6,7-hexahydro-s-indacen-4-yl)carbamoyl)azetidine-3-sulfonamide, potassium salt], above 6.00.

On to `CC(C)c1cc(F)cc(-c2ccnc(C#N)c2)c1NC(=O)NS(=O)(=O)C1CN(C(C)C)C1` [Example 157, N-((2-(2-Cyanopyridin-4-yl)-4-fluoro-6-isopropylphenyl)carbamoyl)-1-isopropylazetidine-3-sulfonamide], for which the pIC50 was 5.00 to 6.00.

Consider `CC(C)c1cc(F)cc(-c2ccnc(C#N)c2)c1NC(=O)NS(=O)(=O)C1CN(C2CCC2)C1` [Example 161, N-((2-(2-Cyanopyridin-4-yl)-4-fluoro-6-isopropylphenyl)carbamoyl)-1-cyclobutylazetidine-3-sulfonamide], for which the pIC50 is 5.00 to 6.00. Take `CCN1CC(S(=O)(=O)NC(=O)Nc2c(-c3ccnc(C#N)c3)cc(F)cc2C(C)C)C1` [Example 165, N-((2-(2-Cyanopyridin-4-yl)-4-fluoro-6-isopropylphenyl)carbamoyl)-1-ethylazetidine-3-sulfonamide]: the pIC50 is 5.00 to 6.00. Still for that read-out and setting: under `CCN1CC(S(=O)(=O)NC(=O)Nc2c(-c3ccnc(OC)c3)cc(F)cc2C(C)C)C1` [Example 166, 1-Ethyl-N-((4-fluoro-2-isopropyl-6-(2-methoxypyridin-4-yl)phenyl)carbamoyl)azetidine-3-sulfonamide] stands 5.00 to 6.00; under `CC(C)c1cc(F)cc(-c2ccnc(C#N)c2)c1NC(=O)NS(=O)(=O)C1CN(Cc2cccnc2)C1` [Example 169, N-((2-(2-Cyanopyridin-4-yl)-4-fluoro-6-isopropylphenyl)carbamoyl)-1-(pyridin-3-ylmethyl)azetidine-3-sulfonamide], 5.00 to 6.00; under `CC(C)c1cc(F)cc(-c2cccnc2)c1NC(=O)NS(=O)(=O)C1CN(C(C)C)C1` [Example 175, N-((4-Fluoro-2-isopropyl-6-(pyridin-3-yl)phenyl)carbamoyl)-1-isopropylazetidine-3-sulfonamide], above 6.00.

For the molecule `CC(C)c1cc(F)cc(-c2cccnc2)c1NC(=O)NS(=O)(=O)C1CCN(C(C)C)CC1` [Example 176, N-((4-Fluoro-2-isopropyl-6-(pyridin-3-yl)phenyl)carbamoyl)-1-isopropylpiperidine-4-sulfonamide], the negative logarithm of the IC50 (pIC50) is 5.00 to 6.00.

Consider `COc1cc(-c2cc(F)cc(C(C)C)c2NC(=O)NS(=O)(=O)C2CN(Cc3cccnc3)C2)ccn1` [Example 177, N-((4-Fluoro-2-isopropyl-6-(2-methoxypyridin-4-yl)phenyl)carbamoyl)-1-(pyridin-3-ylmethyl)azetidine-3-sulfonamide], for which the pIC50 is 5.00 to 6.00. Same read-out and setting: under `COc1cc(-c2ccc3c(c2NC(=O)NS(=O)(=O)c2ccn(C(C)C)c(=O)c2)CCC3)ccn1` [Example 179, 1-Isopropyl-N-((5-(2-methoxypyridin-4-yl)-2,3-dihydro-1H-inden-4-yl)carbamoyl)-2-oxo-1,2-dihydropyridine-4-sulfonamide, sodium salt] stands above 6.00.

As for `CC(C)n1ccc(S(=O)(=O)NC(=O)Nc2c3c(cc4c2CCC4)CCC3)cc1=O` [Example 180, N-((1,2,3,5,6,7-Hexahydro-s-indacen-4-yl)carbamoyl)-1-isopropyl-2-oxo-1,2-dihydropyridine-4-sulfonamide, sodium salt], the pIC50 is 5.00 to 6.00. On the same count and under the same terms, under `CC(C)n1cccc(S(=O)(=O)NC(=O)Nc2c3c(cc4c2CCC4)CCC3)c1=O` [Example 182, N-((1,2,3,5,6,7-Hexahydro-s-indacen-4-yl)carbamoyl)-1-isopropyl-2-oxo-1,2-dihydropyridine-3-sulfonamide] stands 5.00 to 6.00; under `CN(C)CCn1cc(S(=O)(=O)NC(=O)Nc2c3c(cc4c2CCC4)CCC3)ccc1=O` [Example 184, 1-(2-(Dimethylamino)ethyl)-N-((1,2,3,5,6,7-hexahydro-s-indacen-4-yl)carbamoyl)-6-oxo-1,6-dihydropyridine-3-sulfonamide], 5.00 to 6.00; under `CCN1CCC(S(=O)(=O)NC(=O)Nc2c(-c3ccnc(OC)c3)ccc3c2CCC3)CC1` [Example 188, 1-Ethyl-N-((5-(2-methoxypyridin-4-yl)-2,3-dihydro-1H-inden-4-yl)carbamoyl)piperidine-4-sulfonamide, potassium salt], 5.00 to 6.00. As for `CCN1CCC(S(=O)(=O)NC(=O)Nc2c(-c3ccnc(C#N)c3)ccc3c2CCC3)CC1` [Example 190, N-((5-(2-Cyanopyridin-4-yl)-2,3-dihydro-1H-inden-4-yl)carbamoyl)-1-ethylpiperidine-4-sulfonamide, potassium salt], the pIC50 is 5.00 to 6.00.

In the case of `CN1CCCC(S(=O)(=O)NC(=O)Nc2c3c(cc4c2CCC4)CCC3)CC1` (centres unmarked) [Example 195, N-((1,2,3,5,6,7-hexahydro-s-indacen-4-yl)carbamoyl)-1-methylazepane-4-sulfonamide, potassium salt], the pIC50 was above 6.00.

Tested on in another series: not listed separately
As to the kind of experiment: PK, intravenous administration. In kind it is in vivo, male Sprague Dawley rats. The following applies: male, Sprague Dawley, plasma; rat, intravenous, dose 1 mg/kg; read-out: AUC. On the procedure: Pharmacokinetic parameters were determined in male Sprague Dawley rats (Charles River, UK, 250-300 g; or Vital River Laboratory Animal Technology Co Ltd, Beijing, China, 7-9 weeks old). Animals were individually housed during the study and maintained under a 12 h light/dark cycle. Animals had free access to food and water except that orally dosed animals were food deprived overnight prior to the study. For intravenous administration, compounds were formulated as a solution in water or DMSO:PBS [10:90] in 2 mL/kg dosing volume and administered via tail vein. For oral administration, compounds were formulated as a solution in water or DMSO:water [10:90] in 5 mL/kg dosing volume and administered orally. Serial blood samples (about 120-300 μL) were taken from each animal at each of 8 time-points post dose (0.083, 0.25, 0.5, 1, 2, 4, 8 and 24 h). Samples were held on ice for no longer than 30 minutes before centrifugation (10,000 rpm (8,385 g) for 3 minutes; or 5,696 rpm (3,000 g) for 15 minutes) for plasma generation. Plasma was frozen on dry ice prior to bioanalysis. PK parameters were generated from LC-MS/MS data using Dotmatics or Phoenix WinNonlin 6.3 software.
For the molecule `O=C(Nc1c2c(cc3c1CCC3)CCC2)NS(=O)(=O)C1CN(C2CCC2)C1` [Example 18, 1-Cyclobutyl-N-((1,2,3,5,6,7-hexahydro-s-indacen-4-yl)carbamoyl)azetidine-3-sulfonamide, potassium salt], the AUC came out at 1530 ng·h/mL.

The series is the same for the next values; noted with them: male, Sprague Dawley, plasma; rat, intravenous, dose 1 mg/kg; read-out: Cl.
Consider `O=C(Nc1c2c(cc3c1CCC3)CCC2)NS(=O)(=O)C1CN(C2CCC2)C1` [Example 18, 1-Cyclobutyl-N-((1,2,3,5,6,7-hexahydro-s-indacen-4-yl)carbamoyl)azetidine-3-sulfonamide, potassium salt], for which the clearance is 10.9 mL/min/kg.

The series is the same for the next values; noted with them: male, Sprague Dawley, plasma; rat, intravenous, dose 1 mg/kg; read-out: T1/2 (converted).
Take `O=C(Nc1c2c(cc3c1CCC3)CCC2)NS(=O)(=O)C1CN(C2CCC2)C1` [Example 18, 1-Cyclobutyl-N-((1,2,3,5,6,7-hexahydro-s-indacen-4-yl)carbamoyl)azetidine-3-sulfonamide, potassium salt]: the half-life is 54 min.

Still in this series, the particulars now being: male, Sprague Dawley, plasma; rat, intravenous, dose 1 mg/kg; read-out: Vdss.
As for `O=C(Nc1c2c(cc3c1CCC3)CCC2)NS(=O)(=O)C1CN(C2CCC2)C1` [Example 18, 1-Cyclobutyl-N-((1,2,3,5,6,7-hexahydro-s-indacen-4-yl)carbamoyl)azetidine-3-sulfonamide, potassium salt], the Vd was determined as 0.42 L/kg.
